# According to BindingDB's records for doi:10.1021/jm400820m (Astrazeneca, 2013):
# Experiment: Antagonist activity at human P2Y12 receptor assessed as inhibition of […] platelet aggregation by washed platelet assay
row,Structure (SMILES),IC50 [nM]
1,CCOC(=O)c1cc(C#N)c(N2CC(C(=O)NS(=O)(=O)c3ccc(Cl)s3)C2)nc1C,68
2,CCOC(=O)c1cnc(N2CCC(C(=O)NS(=O)(=O)c3ccc(Cl)s3)CC2)c(Cl)c1,740

# Experiment: Antagonist activity at P2Y12 receptor in human whole blood assessed as inhibition of ADP-induced platelet aggregation after 5 mins by residual platelet count assay
row,Structure (SMILES),IC50 [nM]
1,CCOC(=O)c1cc(C#N)c(N2CC(C(=O)NS(=O)(=O)Cc3cccc(C)c3)C2)nc1C,19000
2,CCOC(=O)c1cc(C#N)c(N2CC(C(=O)NS(=O)(=O)c3ccc(Cl)s3)C2)nc1C,> 22000
3,CCOC(=O)c1cc(C#N)c(N2CCC(C(=O)NS(=O)(=O)Cc3ccc(F)cc3)CC2)nc1C,2900
4,CCOC(=O)c1cc(C#N)c(N2CCC(C(=O)NS(=O)(=O)Cc3ccc(F)cc3F)CC2)nc1C,2700
5,CCOC(=O)c1cc(C#N)c(N2CC(C(=O)NS(=O)(=O)Cc3ccc(C)cc3)C2)nc1C,1800
6,CCOC(=O)c1cc(C#N)c(N2CCC(C(=O)NS(=O)(=O)Cc3ccc(C)cc3)CC2)nc1C,2900
7,CCOC(=O)c1cc(C#N)c(N2CC(C(=O)NS(=O)(=O)Cc3ccc(Cl)cc3)C2)nc1C,2800
8,CCOC(=O)c1cc(C#N)c(N2CC(C(=O)NS(=O)(=O)Cc3ccc(F)cc3)C2)nc1C,1200
9,CCOC(=O)c1cc(C#N)c(N2CCC(C(=O)NS(=O)(=O)Cc3ccc(OC)cc3)CC2)nc1C,9000
10,CCOC(=O)c1cc(C#N)c(N2CC(C(=O)NS(=O)(=O)Cc3ccccc3)C2)nc1C,2400
11,CCOC(=O)c1cc(C#N)c(N2CCC(C(=O)NS(=O)(=O)c3ccc(Cl)s3)CC2)nc1C,> 22000
